The values below come from ChEMBL document CHEMBL4765494, “A role of flavonoids in cytochrome c-cardiolipin interactions” (Bioorg Med Chem, 2021).

Data set [1] addresses Cytochrome c (Homo sapiens) (UniProt P99999). In words: Inhibition of cytochrome c (unknown origin) assessed as reduction in cyt c-CL complex formation at 10 uM incubated for 15 mins in presence of cardiolipin by Trp-59 fluorescence assay relative to control.
Data set [2] has the same target. In words: Inhibition of cytochrome c (unknown origin) assessed as reduction in cyt c-CL peroxidase activity at 10 uM up to 20 mins in presence of cardiolipin by Amplex red staining based fluorescence assay relative to control. The conditions noted are these: time min <=20.
For data set [3] the target is unchanged. In words: Inhibition of cytochrome c (unknown origin) assessed as reduction reduction of cyt c from its ferric state to ferrous state at 10 uM incubated for 20 mins in presence of cardiolipin by UV-vis Spectrophotometric assay relative to control.
A short description of data set [4]: Octanol-water distribution coefficient, log D of the compound at pH 7.4 after 1 hr by UV-VIS spectroscopic analysis. The data set is classed as physicochemical.
Data set [5] concerns the target Cytochrome c (Homo sapiens) (UniProt P99999). In words: Inhibition of cytochrome c (unknown origin) assessed as reduction reduction of cyt c from its ferric state to ferrous state incubated for 20 mins in presence of cardiolipin by UV-vis Spectrophotometric assay.
The target is the same in data set [6]. In words: Inhibition of cytochrome c (unknown origin) assessed as pseudo first order rate constant.
Data set [7] shares this target.
Description: Inhibition of cytochrome c (unknown origin) assessed as half-time reaction

Cytochrome c (Homo sapiens), sequence (P99999 whole entry): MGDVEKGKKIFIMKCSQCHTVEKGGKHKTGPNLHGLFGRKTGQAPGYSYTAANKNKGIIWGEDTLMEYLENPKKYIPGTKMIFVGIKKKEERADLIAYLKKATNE

What is called inhibition is the relative decrease from the control value, in per cent. Usually logD stands for lipophilicity at a set pH, counting ionised and neutral species. A low value points to a more hydrophilic compound. `O=C1C[C@@H](c2ccccc2)Oc2ccccc21`: the inhibition is 67% in data set [1], 47% in data set [2] and 12% in data set [3]. Further, the pH-dependent lipophilicity (logD) at 1 h in data set [4] was determined as 2.95.

For the molecule `O=c1c(-c2ccc(O)cc2)coc2cc(O)ccc12`, the inhibition was 43% in data set [2] and 5.8% in data set [3].

Regarding `O=c1cc(-c2ccccc2)oc2ccccc12`, the inhibition in data set [1] was found to be 87%; in data set [2], 50%; in data set [3], 0%.

`O=C1c2c(O)cc(O)cc2O[C@H](c2ccc(O)c(O)c2)[C@H]1O` [(+)-TAXIFOLIN]: the values for the inhibition in data set [1], in data set [2] and in data set [3] were 58%, 67% and 36%, respectively. The K in data set [5] is 1 M⁻¹ s⁻¹; in data set [6], 0.067 min⁻¹. In data set [4], this molecule gave a logD at 1 h of 0.67.

With `O=c1cc(-c2ccccc2)oc2cc(O)c(O)c(O)c12` [BAICALEIN], the inhibition amounted to 91% in data set [1], 71% in data set [2] and 79% in data set [3]. In addition, the log distribution coefficient (logD) at 1 h in data set [4] came out at 2.51.

As for `COc1ccc(-c2coc3cc(O)cc(O)c3c2=O)cc1` [BIOCHANIN], the inhibition was 37% in data set [1], 32% in data set [2] and 23% in data set [3]. Also, in data set [4], the logD at 1 h is 2.82.

With `Oc1cc(O)c2c(c1)O[C@H](c1ccc(O)c(O)c1)[C@@H](O)C2` [CIANIDANOL], the K turned out to be 2 M⁻¹ s⁻¹ in data set [5] and 0.13 min⁻¹ in data set [6]. Besides, the inhibition in data set [2] stood at 90%; in data set [3], 61%. In data set [4], this molecule gave a logD at 1 h of 0.01.

As to `O=C(O[C@@H]1Cc2c(O)cc(O)cc2O[C@@H]1c1cc(O)c(O)c(O)c1)c1cc(O)c(O)c(O)c1` [EPIGALOCATECHIN GALLATE], the inhibition came out at 63% in data set [1], 50% in data set [2] and 62% in data set [3]. Further, in data set [7], the T1/2 stood at 1.3 min. This molecule also returned a logD at 1 h in data set [4] of 0.04.

Turning to `O=c1c(O)c(-c2ccc(O)c(O)c2)oc2cc(O)ccc12` [FISETIN], the inhibition came to 85% in data set [1], 81% in data set [2] and 73% in data set [3]. In addition, the K in data set [5] came out at 220 M⁻¹ s⁻¹. Moreover, the logD at 1 h in data set [4] was 2.29.

On to `O=c1c(-c2ccc(O)cc2)coc2cc(O)cc(O)c12` [GENISTEIN], for which the results for the inhibition in data set [1], in data set [2] and in data set [3] were 50%, 51% and 0%, respectively. Besides, the logD at 1 h in data set [4] stood at 2.68.

For the molecule `COc1ccc([C@@H]2CC(=O)c3c(O)cc(O)cc3O2)cc1O` [HESPERETIN], the inhibition is 71% in data set [1], 57% in data set [2] and 7.8% in data set [3]. Further, the K in data set [5] worked out at 0.1 M⁻¹ s⁻¹. The logD at 1 h in data set [4] came to 2.22.

Turning to `O=c1c(O)c(-c2ccc(O)cc2)oc2cc(O)cc(O)c12` [KAEMPFEROL], the inhibition in data set [1] worked out at 83%; in data set [2], 70%; in data set [3], 83%. In addition, in data set [5], the K is 92 M⁻¹ s⁻¹. Besides, the T1/2 in data set [7] was 1.2 min. This molecule displayed a logD at 1 h in data set [4] of 3.39.

`O=c1cc(-c2ccc(O)c(O)c2)oc2cc(O)cc(O)c12` [LUTEOLIN]: the inhibition is 84% in data set [1], 71% in data set [2] and 32% in data set [3]. In addition, the K in data set [6] is 0.033 min⁻¹. Moreover, the T1/2 in data set [7] turned out to be 11 min. For the same molecule, the logD at 1 h in data set [4] is 2.7.

Consider `O=c1c(O)c(-c2cc(O)c(O)c(O)c2)oc2cc(O)cc(O)c12` [MYRICETIN], for which the inhibition amounted to 91% in data set [1], 81% in data set [2] and 90% in data set [3]. The K in data set [5] is 1030 M⁻¹ s⁻¹. In data set [7], this molecule had a T1/2 of 0.08 min. The logD at 1 h in data set [4] turned out to be 0.91.

For the molecule `O=C1C[C@@H](c2ccc(O)cc2)Oc2cc(O)cc(O)c21` [NARINGENIN], the figures for the inhibition in data set [1], in data set [2] and in data set [3] were 60%, 46% and 7.3%, respectively. For the same molecule, the K in data set [5] was found to be 0.002 M⁻¹ s⁻¹. In data set [4], the logD at 1 h amounted to 2.35.

Turning to `C[C@@H]1O[C@@H](O[C@H]2[C@H](Oc3cc(O)c4c(c3)O[C@H](c3ccc(O)cc3)CC4=O)O[C@H](CO)[C@@H](O)[C@@H]2O)[C@H](O)[C@H](O)[C@H]1O` [NARINGIN], the inhibition in data set [1] was 81%; in data set [2] it was 54%; in data set [3] it was 27%. Besides, the logD at 1 h in data set [4] was -0.87.

For `C[C@@H]1O[C@@H](OC[C@H]2O[C@@H](Oc3c(-c4ccc(O)c(O)c4)oc4cc(O)cc(O)c4c3=O)[C@H](O)[C@@H](O)[C@@H]2O)[C@H](O)[C@H](O)[C@H]1O` [RUTIN], the values for the inhibition in data set [1], in data set [2] and in data set [3] were 66%, 28% and 19%, respectively. The logD at 1 h in data set [4] was -0.67.
